In brackets after ≈: the same amount, converted by molar mass.
What was measured:
Assay type in all cases: cell-based
[1] = test system: MCF7 (human breast cancer cell line); experiment: Tumor cell growth assay (sulforhodamine B), MCF7; conditions: for Remarks (% at 100 ppm): 48 h; for Inhibitory effect on in vitro growth (in words): 48 h exposure; for LC90: death of 90% of cells in 48 hrs
Text: (§1) Reagents: Fetal bovine serum (FBS) and L-glutamine were purchased from Gibco Invitrogen Co. (Scotland, UK). RPMI-1640 medium was from Cambrex (New Jersey, USA). Dimethyl sulfoxide (DMSO), doxorubicin, penicillin, streptomycin and sulforhodamine B (SRB) were from Sigma Chemical Co. (Saint Louis, USA).
(§2) Cell cultures: Three human tumor cell lines, HCT116 (colon cell line), HePG 2 (human hepatocellular carcinoma cell line), and MCF7 (human breast adenocarcinoma) were used. In vitro bioassay on human tumor cell lines were conducted and determined by the Bioassay-Cell Culture Laboratory, National Research Centre, El-Tahrir St., Dokki, Cairo 12622, Egypt. They grew as a monolayer and are routinely maintained in RPMI-1640 medium supplemented with 5% heat-inactivated FBS, 2 mM glutamine and antibiotics (penicillin 100 U/mL, streptomycin 100 μg/mL), at 37° C. in a humidified atmosphere containing 5% CO2. Exponentially growing cells were obtained by plating 1.5×10^5 cells/mL for MCF-7 and HCT116 and 0.75×10^4 cells/mL for HePG2, followed by 24 h of incubation. The effect of the vehicle solvent (DMSO) on the growth of these cell lines was evaluated in all experiments by exposing untreated control cells to the maximum concentration (0.5%) of DMSO used in each assay.
(§3) Tumor cell growth assay: The effect on the in vitro growth of human tumor cell lines was evaluated according to the procedure adopted by the National Cancer Institute (NCI, USA) in the ‘In vitro Anticancer Drug Discovery Screen’ that uses the protein-binding dye sulforhodamine B to assess cell growth. Briefly, cells growing in 96-well plates were then exposed for 48 h to five serial concentrations of each compound, starting from a maximum concentration of 78 μM (P. Skehan, R. Storeng, D. Scudiero, A. Monks, J. McMahon, D. Vistica, J. T. Warren, H. Bokesch, S. Kenney, M. R. Boyd, J. Natl. Cancer Inst., 82, 1107 (1990), incorporated herein by reference in its entirety). Following this exposure period adherent cells were fixed, washed, and stained. The bound stain was solubilized and the absorbance was measured at 492 nm in a plate reader (Bio-Tek Instruments Inc., Power wave XS, Wincoski, USA). For each test compound and cell line, a dose-response curve was obtained and the growth inhibition of 50% (GI50), corresponding to the concentration of the compounds that inhibited 50% of the net cell growth, was calculated as described elsewhere (A. Monks, D. Scudiero, P. Skehan, R. Shoemaker, K. Paull, D. Vistica, C. Hose, J. Langley, P. Cronise, A. Vaigro-Wolff, M. Gray-Goodrich, H. Campbell, J. Mayo, M. J. Boyd, Natl. Cancer Inst., 83, 757 (1991), incorporated herein by reference in its entirety). Doxorubicin was used as a positive control and tested in the same manner.

[2] = test system: HCT116 (colon cancer cell line); experiment: Tumor cell growth assay (sulforhodamine B), HCT116; conditions: for Remarks (% at 100 ppm): 48 h; for Inhibitory effect on in vitro growth (in words): 48 h exposure; for LC90: death of 90% of cells in 48 hrs
Text: as §1, §2, §3

[3] = test system: Pseudomonas aeruginosa ATCC 9027; experiment: Well diffusion agar method, inhibition zone; conditions: compound at 50 μg/mL in DMSO, 37° C., 24 h; for zone of inhibition at 50 µg/mL: Pseudomonas aeruginosa, ATCC9027, read-out: Inhibition zone, P. aeruginosa
Text: (§4) The ability to inhibit the growth of Gram-positive and Gram-negative bacteria, yeasts and filamentous fungi was observed using an overlay method (S. R. Connell, D. M. Tracz, K. H. Nierhaus, D. E. Taylor, Antimicrob. Agents Chemother. 47, 3675 (2003), incorporated herein by reference in its entirety).
(§5) The common pathogenic and food spoilage microorganisms were selected for their relevance in bakery products and other food: the gram-positive bacteria: Bacillus subtilits NRRL-B-4219, Staphylococcus aureus ATCC 6538, Enterococcus faecalis ATCC 19433; the gram negative bacteria: Escherichia coli ATCC 25922, Pseudomonas aeruginosa ATCC 9027, Proteus sp.; yeasts, such as Candida albicans ATCC 10231; and fungi: Aspergillus niger NRRL 2766 (equivalent to ATCC 16888), and Aspergillus flavus ATCC 16883. The bacteria were slanted on nutrient agar (Merck, Darmstadt, Germany), yeast was slanted and mentioned on Sabaroud's agar medium (Lab M., Bury, Lancashire, UK) and the fungi was slanted and mentioned on the potato Dextrose Agar medium (Lab M Limited, Bury, Lancashire, UK). Mueller-Hinton agar (Lab M., Bury, Lancashire, UK) following the manufacturer's instructions was used for the assay.
(§6) All compounds were dissolved in dimethyl sulfoxide (RFCL Limited, New Delhi, India) at 50 μg/mL concentration as shown in Table 4 in comparison with different standard antibiotics. Antibiotic discs of Streptomycin (S) (10 μg), Oxytetracycline (T) (30 μg), and Tetracyciline (TE) (30 μg) were used as positive controls for bacteria. Neomycin (N) (30 μg), was used for fungi.
(§7) The antibacterial screening was performed with the well diffusion agar method (S. T. Williams, M. Goodfellow, E. M. H. Wellington, J. C. Vickers, G. Alderson, P. H. A. Sneath, S. M. J. Sackins, A. M. Mortimer, J. Gen. Microbiol. 129, 1815(1983); and B. Bonev, J. Hooper, J. Parisot, J. Antimicrob. Chemother., 61, 1295(2008), each incorporated herein by reference in their entirety). The organisms were streaked in radial patterns on the agar plates. Plates were incubated under aerobic conditions at 37° C. and 28° C. for 24 h and 48 h for bacteria and fungi, respectively. All prepared solutions were treated under the same conditions under the same incubated plates. All tests were performed in triplicate. Plates were examined for evidence of antimicrobial activities, represented by a zone of inhibition of the microorganism's growth around the holes, and diameters of clear zones were expressed in millimeters (R. Cruickshank, J. P. Duguid, B. P. Marmion, R. H. A. Swain, The practice of medicinal microbiology. In Medical Microbiology, 12th ed.; Churchill Livingstone: Edinburgh, UK, Volume 11, pp. 196-202 (1975), incorporated herein by reference in its entirety).

[4] = test system: Aspergillus flavus ATCC 16883; experiment: Well diffusion agar method, inhibition zone; conditions: for zone of inhibition at 50 µg/mL: Aspergillus flavus, ATCC16883; for Antifungal activity (in words): A. flavus, in comparison with Neomycin
Text: as §4, §5, §6, §7

[5] = test system: Enterococcus faecalis ATCC 19433; experiment: Well diffusion agar method, inhibition zone; conditions: compound at 50 μg/mL in DMSO, 37° C., 24 h; for zone of inhibition at 50 µg/mL: Enterococcus faecalis, ATCC19433, read-out: Inhibition zone, Ent. faecalis
Text: as §4, §5, §6, §7

[6] = test system: Escherichia coli ATCC 25922; experiment: Well diffusion agar method, inhibition zone; conditions: compound at 50 μg/mL in DMSO, 37° C., 24 h; for zone of inhibition at 50 µg/mL: Escherichia coli, ATCC25922, read-out: Inhibition zone, E. coli
Text: as §4, §5, §6, §7

[7] = compound at 50 μg/mL in DMSO, 28° C., 48 h

Compound | Remarks (% at 100 ppm) [1] [% at 100 ppm] | Remarks (% at 100 ppm) [2] [% at 100 ppm] | zone of inhibition at 50 µg/mL [3] [mm] | zone of inhibition at 50 µg/mL [4, 7] [mm] | zone of inhibition at 50 µg/mL [5] [mm] | zone of inhibition at 50 µg/mL [6] [mm] | Inhibitory effect on in vitro growth (in words) [1] | LC50 (concentration killing 50% of cells) ([1]; Homo sapiens, death of 50% of cells in 48 hrs) [µg/mL] | LC90 [1] [µg/mL] | Inhibitory effect on in vitro growth (in words) [2] | CC50 ([2]; Homo sapiens, HCT-116, death of 50% of cells in 48 hrs, read-out: LC50 (the source's name)) [µg/mL] | LC90 [2] [µg/mL] | Antifungal activity (in words) [4] | LC50 ([1]; death of 50% of cells in 48 hrs) [µg/mL] | Inhibition zone, P. aeruginosa [3] [mm] | Inhibition zone, A. flavus [4, 7] [mm] | Inhibition zone, Ent. faecalis [5] [mm] | Inhibition zone, E. coli [6] [mm]
CCOC1Oc2ccccc2C(=O)C1=NNc1ccccc1OC (stereo not shown) [Compound 6b, 2-ethoxy-3-(2-(2-methoxyphenyl)hydrazono)chroman-4-one] | 22.9 | 39.6 | 0 | 0 | 0 | 12 |  |  |  |  |  |  |  |  |  |  |  | 
CCOC1Oc2ccccc2C(=O)C1=NNc1ccc(Cl)cc1 (stereo not shown) [Compound 6c, 3-[(4-Chlorophenyl)hydrazono]-2-ethoxychroman-4-one] | 100 | 100 | 28 | 17 | 21 | 30 | highest inhibitory effect | 15.8 | 27.0 (≈ 81.6 µM) | highest inhibitory effect | 13.2 (≈ 39.9 µM) | 23.1 (≈ 69.8 µM) | moderate activity |  |  |  |  | 
Ethoxy-3-[(4-nitro-phenyl)-hydrazono]-chroman-one [Compound 6a] | 61.3 | 65.3 |  |  |  |  | highest inhibitory effect |  | 124.1 | highest inhibitory effect |  | 123.3 | moderate activity | 76.3 | 30 | 22 | 25 | 33

From patent publication US10266510B2, “Antimicrobial and cytotoxic compounds and methods for treating cancer, a bacterial infection, and/or a fungal infection” (King Abdulaziz University, priority 2017, dated 2019)
